Data on 3 molecules can be found in patent US20070111251A1, “Chemical address tags” (priority 2003, published 2007).

In series [1] the test system is HeLa cells. Nature of the series: Kinetic imaging of NBD-triazine probe uptake and sequestration, fitted to nested two-compartment transport model. The format is cell-based. Conditions: median over optimal solutions within 5% of the best fit. An outline of the steps: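 HeLa cells (3000/well, plated 24 h earlier) imaged live with 10 μM NBD probe in RPMI containing 1.0 mM bromophenol blue, about 2 h for influx, then washed and imaged 6 h for efflux, every ~7 min. Perinuclear pixel-intensity CV fitted to a nested two-compartment transport model by simulated annealing.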

For series [2] the following is noted: pyridine derivatives; cited from earlier work.

For the molecule `COc1cccc(CNc2nc(NCCCCCCNc3ccc([N+](=O)[O-])c4nonc34)nc(NCCc3ccccn3)n2)c1` [Compound B9], in series [1], the “median Pap(cyto) (apparent partition coefficient between extracellular medium and cytosol)” value (“median Pap(cyto)” below) is recorded as 15351.10; the “median Pap(ves) (apparent partition coefficient between cytosol and intracellular vesicles, k(ves)in/k(ves)out)” value (“median Pap(ves)” below) is recorded as 100.42. The pKa in series [2] is on record as ~6.0.

On to `COc1ccc(CCNc2nc(NCCCCCCNc3ccc([N+](=O)[O-])c4nonc34)nc(NCCc3ccccn3)n2)cc1` [Compound D9], for which, in series [1], the “median Pap(cyto)” value was 0.06; the “median Pap(ves)” value is recorded as 99497.01. For the same molecule, the pKa in series [2] is given as ~6.0.

In the case of `O=[N+]([O-])c1ccc(NCCCCCCNc2nc(NCCc3ccccn3)nc(NCCC(c3ccccc3)c3ccccc3)n2)c2nonc12` [Compound F9], in series [1], the “median Pap(cyto)” value amounted to 2989.27; the “median Pap(ves)” value amounted to 2940.20. In addition, in series [2], the pKa was ~6.0.

For orientation: pKa means the negative logarithm of the acid dissociation constant.
